Measured values: US6147100A, “Pyrrolidine derivatives having phospholipase A2 inhibitory activity” (Shionogi & Co., Ltd., priority 1997, dated 2000)

These compounds were tested against T1, cPLA2 (Homo sapiens, UniProt P47712) (assay: cPLA2 Inhibitory Activity). Conditions: 1-palmitoyl-2-[14C]-arachidonoyl-sn-glycero-3-phosphocholine 2.5 μM, sn-1,2-dioleoylglycerol 1.25 μM; pH 7.5, 15 min at 37° C.
T1 sequence (P47712 1-749): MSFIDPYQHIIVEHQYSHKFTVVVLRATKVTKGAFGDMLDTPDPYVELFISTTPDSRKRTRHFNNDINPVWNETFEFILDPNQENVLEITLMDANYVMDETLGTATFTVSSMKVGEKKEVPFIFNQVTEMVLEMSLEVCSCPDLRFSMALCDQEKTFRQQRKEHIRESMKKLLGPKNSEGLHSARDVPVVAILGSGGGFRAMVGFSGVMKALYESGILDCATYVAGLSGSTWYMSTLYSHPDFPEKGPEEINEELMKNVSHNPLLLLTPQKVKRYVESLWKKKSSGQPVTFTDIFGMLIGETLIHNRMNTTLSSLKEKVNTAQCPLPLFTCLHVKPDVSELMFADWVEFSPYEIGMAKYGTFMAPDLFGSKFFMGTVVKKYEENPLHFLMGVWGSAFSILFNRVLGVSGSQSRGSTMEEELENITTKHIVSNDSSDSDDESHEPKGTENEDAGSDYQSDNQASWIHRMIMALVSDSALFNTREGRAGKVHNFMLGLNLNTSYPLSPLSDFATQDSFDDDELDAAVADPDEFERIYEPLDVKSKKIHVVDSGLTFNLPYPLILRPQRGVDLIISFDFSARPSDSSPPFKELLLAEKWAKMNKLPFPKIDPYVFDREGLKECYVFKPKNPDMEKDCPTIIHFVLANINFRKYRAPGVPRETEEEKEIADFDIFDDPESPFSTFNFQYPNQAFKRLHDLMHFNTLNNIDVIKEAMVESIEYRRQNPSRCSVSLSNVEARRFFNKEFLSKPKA
Assay type: biochemical
Description: Test Example 1 cPLA2 Inhibitory Activity The compounds of the present invention were tested for the cPLA2 inhibitory activity according to the method disclosed in […]. Roberts, […], and J. E. Putnam, J. Biol. Chem., 1991, 266, 5268-5272 as outlined below. […] The reaction mixture includes 50 mM HEPES buffer (pH 7.5), 1 mM calcium chloride, 150 mM sodium chloride, 0.1 mg/ml bovine serum albumin, and 1.7 mM dithiothreitol. To the reaction mixture was added the compound of the present invention and the substrate solution. The reaction was allowed to start by adding an enzyme and continued for 15 min at 37° C. The fatty acids released by the reaction were extracted by the method described in V. P. Dole, and H. Meinertz, J. Biol. Chem., 1960, 235, 2595-2599 and its radiation activity was measured on a liquid scintillation counter. Control was obtained by conducting the experiment in the same manner except that a compound of the present invention was not added.

Compound | IC50
Nc1ccccc1C(=O)c1ccccc1C(=O)N1C[C@H](OCc2ccccc2-c2ccccc2)C[C@H]1CNC(=O)c1ccc(/C=C2\SC(=O)NC2=O)cc1 [Compound A-23] | 460 nM
CCN(Cc1ccccc1-c1ccccc1)[C@@H]1C[C@@H](C(=O)Nc2ccc(/C=C3\SC(=O)NC3=O)cc2)N(C(=O)c2ccccc2C(=O)c2ccc(F)cc2)C1 [Compound N-4] | 69 nM
CC(C)Cc1cccc(-c2ccccc2)c1O[C@@H]1C[C@@H](CNC(=O)c2ccc(/C=C3\SC(=O)NC3=O)cc2)N(C(=O)c2ccccc2C(=O)c2ccc(F)cc2)C1 [Compound A-124] | 24 nM
O=C1NC(=O)/C(=C/c2ccc(C(=O)NC[C@@H]3C[C@@H](Oc4ccccc4-c4cccnc4)CN3C(=O)c3ccccc3C(=O)c3ccc(F)cc3)cc2)S1 [Compound A-105] | 150 nM
Nc1cccc(-c2ccccc2CO[C@@H]2C[C@@H](CNC(=O)c3ccc(/C=C4\SC(=O)NC4=O)cc3)N(C(=O)c3ccccc3C(=O)c3ccc(F)cc3)C2)c1 [Compound A-46] | 150 nM
CCN(Cc1ccccc1-c1ccccc1)[C@@H]1C[C@@H](C(=O)Nc2ccc(/C=C3\SC(=S)NC3=O)cc2)N(C(=O)c2ccccc2C(=O)c2ccc(F)cc2)C1 [Compound N-5] | 240 nM
CN(Cc1ccccc1)[C@@H]1C[C@@H](CNC(=O)c2ccc(/C=C3\SC(=S)NC3=O)cc2)N(C(=O)c2ccccc2C(=O)c2ccc(F)cc2)C1 [Compound M-2] | 1400 nM
O=C1NC(=O)/C(=C/c2ccc(C(=O)NCCC[C@@H]3C[C@@H](OCc4ccccc4-c4ccccc4)CN3C(=O)c3ccccc3C(=O)c3ccc(F)cc3)cc2)S1 [Compound F-1] | 15000 nM
CC(=O)Nc1ccccc1C(=O)c1ccccc1C(=O)N1C[C@H](OCc2ccccc2-c2ccccc2)C[C@H]1CNC(=O)c1ccc(/C=C2\SC(=O)NC2=O)cc1 [Compound A-24] | 5800 nM
CC(C)Cc1cccc(-c2ccccc2C(C)C)c1O[C@@H]1C[C@@H](CNC(=O)c2ccc(/C=C3\SC(=O)NC3=O)cc2)N(C(=O)c2ccccc2C(=O)c2ccc(F)cc2)C1 [Compound A-126] | 5.5 nM
COc1cccc(-c2cccc(O[C@@H]3C[C@@H](CNC(=O)c4ccc(/C=C5\SC(=O)NC5=O)cc4)N(C(=O)c4ccccc4C(=O)c4ccc(F)cc4)C3)c2)c1 [Compound A-99] | 37 nM
O=C1NC(=O)C(CCCc2ccc(C(=O)NC[C@@H]3C[C@@H](OCc4ccccc4-c4ccccc4)CN3C(=O)c3ccccc3C(=O)c3ccc(F)cc3)cc2)S1 (some centres unmarked) [Compound A-51] | 180 nM
CCOc1cccc(-c2ccccc2O[C@@H]2C[C@@H](CNC(=O)c3ccc(/C=C4\SC(=O)NC4=O)cc3)N(C(=O)c3ccccc3C(=O)c3ccc(F)cc3)C2)c1 [Compound A-110] | 100 nM
O=C1NC(=O)/C(=C/c2cccc(C(=O)NC[C@@H]3C[C@@H](OCc4ccccc4-c4ccccc4)CN3C(=O)c3ccccc3C(=O)c3ccc(F)cc3)c2)S1 [Compound A-56] | 2500 nM
O=C(COc1ccc(/C=C2\SC(=O)NC2=O)cc1)NC[C@@H]1C[C@@H](OCc2ccccc2-c2ccccc2)CN1C(=O)c1ccccc1C(=O)c1ccc(F)cc1 [Compound A-50] | 670 nM
O=C1NC(=O)/C(=C/c2ccc(CN(C[C@@H]3C[C@@H](OCc4ccccc4-c4ccccc4)CN3C(=O)c3ccccc3C(=O)c3ccc(F)cc3)C(=O)c3ccccc3)cc2)S1 [Compound G-9] | 1300 nM

These compounds were tested on production of prostaglandin E2 by human fibroblasts (assay: Inhibition of Production of Prostaglandin E2 in Human Fibroblasts (IL-1 stimulation)). Conditions: Fibroblast; human fibroblasts under stimulation with IL-1.
Assay type: cell-based
Description: Test Example 2 Inhibition of Production of Prostaglandin E2 in Human Fibroblasts.
In order to examine the availability of the composition for inhibiting cytosolic phospholipase A2 (cPLA2) on the cells, the compounds of the present invention were tested for the effect on the production of prostaglandin E2 by human fibroblasts under the stimulation with IL-1 according to the method of J. M. Dayer et al (CACHECTIN/TUMOR NECROSIS FACTOR STIMULATES COLLAGENASE AND PROSTAGLANDIN E2 PRODUCTION BY HUMAN SYNOVIAL CELLS AND DERMAL FIBROBLASTS; J. M. Dayer, B, Beutler and A, Cerami, J. EXP. Med., 1985, 162, 2163-2168.).

Compound | IC50
Nc1ccccc1C(=O)c1ccccc1C(=O)N1C[C@H](OCc2ccccc2-c2ccccc2)C[C@H]1CNC(=O)c1ccc(/C=C2\SC(=O)NC2=O)cc1 [Compound A-23] | 1200 nM
O=C1NC(=S)S/C1=C\c1ccc(S(=O)(=O)NC[C@@H]2C[C@@H](OCc3ccccc3-c3ccccc3)CN2C(=O)c2ccccc2C(=O)c2ccc(F)cc2)s1 [Compound A-61] | 970 nM
CC(C)c1cccc(Br)c1O[C@@H]1C[C@@H](CNC(=O)c2ccc(/C=C3\SC(=O)NC3=O)cc2)N(C(=O)c2ccccc2C(=O)c2ccc(F)cc2)C1 [Compound A-100] | 320 nM
O=C1NC(=S)S/C1=C\c1ccc(S(=O)(=O)NC[C@@H]2C[C@@H](OCc3ccccc3-c3ccccc3)CN2C(=O)c2ccccc2C(=O)c2ccc(F)cc2)cc1 [Compound A-63] | 900 nM
